In patent publication US20250127937A1, “FAP INHIBITOR” (UNIVERSITÄT HEIDELBERG, priority 2018, published 2025):
pIC50: −log10 of the molar value. Where two headings read alike, the source gives them in different places.

Tests used:
human FAP-α = human FAP-α (Homo sapiens (Human), UniProt Q12884); experiment: Competitive binding of radiolabeled compound to HT-1080-FAP cells against unlabeled compound
Method: Competition experiments were performed by simultaneous exposure to unlabeled (10^−5 M to 10^−9M) and radiolabeled compound for 60 min. […] For internalization experiments, surface bound activity was removed by incubating the cells with 1 M glycine-HCl buffer for 10 min. The radioactivity was measured using a γ-counter, normalized to 1 mio cells and calculated as percentage of applied dose (% ID).
The medium was replaced by 1 mL fresh medium without fetal calf serum. […] Competition experiments were performed by simultaneous exposure to unlabeled (10^−5 M to 10^−9 M) and radiolabeled compound for 60 min. […] In all experiments, the cells were washed with 1 mL phosphate-buffered saline pH 7.4 for 2 times and subsequently lysed with 1.4 ml lysis buffer (0.3 M NaOH, 0.2% SDS). Radioactivity was determined in a γ-counter (Cobra II, Packard), normalized to 1 mio cells and calculated as percentage of the applied dose (% ID). Each experiment was performed 3 times, and 3 repetitions per independent experiment were acquired.

[1] = test system: HT-1080-FAP tumor xenografts; experiment: Small-animal imaging (PET, scintigraphy) in HT-1080-FAP tumor bearing mice; assay type: in vivo, mouse; conditions: for tumor uptake in vivo: Tc-99m labeled, scintigraphy; for PET imaging findings: F-18 labeled (nicotinamide or AlF-18 NOTA), up to 140 min after i.v.
Method: For in vivo experiments, 8 week old BALB/c nu/nu mice (Charles River) were subcutaneously inoculated into the right trunk with 5×10^6 with HT-1080-FAP, Capan-2 or SK-LMS-1 cells, respectively. When the size of the tumor reached approximately 1 cm^3, the radiolabeled compound was injected via the tail vein (˜10 MBq for small-animal PET imaging; ˜1 MBq for organ distribution). […] Images were reconstructed iteratively using the 3D-OSEM+MAP method and were converted to standardized uptake value (SUV) images. Quantification was done using a ROI technique and expressed as SUV mean. For organ distribution of Lu-177 labeled compound ([…]), the animals (n=3 for each time point) were sacrificed after indicated time points (from 30 min to 24 h). The distributed radioactivity was measured in all dissected organs and in blood using a γ-counter (Cobra Autogamma, Packard). The values are expressed as percentage of injected dose per gram of tissue (% ID/g).

HT-1080-FAP cells [2] = experiment: Radioligand binding and internalization in HT-1080-FAP cells; assay type: cell-based, human
Method: (§1) Radioligand binding studies were performed using HT-1080-FAP cells. The radiolabeled compound was added to the cell culture and incubated for different time intervals ranging from 10 min to 24 h. Competition experiments were performed by simultaneous exposure to unlabeled (10^−5 M to 10^−9M) and radiolabeled compound for 60 min. For efflux experiments, radioactive medium was removed after incubation for 60 min and replaced by non-radioactive medium for time intervals ranging from 1 to 24 h. For internalization experiments, surface bound activity was removed by incubating the cells with 1 M glycine-HCl buffer for 10 min. The radioactivity was measured using a γ-counter, normalized to 1 mio cells and calculated as percentage of applied dose (% ID).
(§2) For radioligand binding studies, cells were seeded in 6-well plates and cultivated for 48 h to a final confluence of approx. 80-90% (1.2-2 mio cells/well). The medium was replaced by 1 mL fresh medium without fetal calf serum. The radiolabeled compound was added to the cell culture and incubated for different time intervals ranging from 10 min to 24 h. Competition experiments were performed by simultaneous exposure to unlabeled (10^−5 M to 10^−9 M) and radiolabeled compound for 60 min. For efflux experiments, radioactive medium was removed after incubation for 60 min and replaced by non-radioactive medium for time intervals ranging from 1 to 24 h. In all experiments, the cells were washed with 1 mL phosphate-buffered saline pH 7.4 for 2 times and subsequently lysed with 1.4 ml lysis buffer (0.3 M NaOH, 0.2% SDS). Radioactivity was determined in a γ-counter (Cobra II, Packard), normalized to 1 mio cells and calculated as percentage of the applied dose (% ID). Each experiment was performed 3 times, and 3 repetitions per independent experiment were acquired.
For internalization experiments the cells were incubated with the radiolabeled compound for 60 min at 37° C. and 4° C. Cellular uptake was terminated by removing medium from the cells and washing 2 times with 1 mL PBS. Subsequently, cells were incubated with 1 mL of glycine-HCl (1 Min PBS, pH 2.2) for 10 min at room temperature to remove the surface bound activity. The cells were washed with 2 mL of ice-cold PBS and lysed with 1.4 mL of lysis buffer to determine the internalized fraction. For the cells incubated at 4° C., all washing and elution steps were carried out using ice-cold buffers. The radioactivity was measured using a γ-counter, normalized to 1 mio cells and calculated as percentage of applied dose (% ID).

human CD26 = human CD26 (Homo sapiens (Human), UniProt P27487); experiment: Radioligand binding to CD26 expressing cells (HEK-CD26); conditions: 60 min incubation
human CD26, sequence (P27487 whole entry): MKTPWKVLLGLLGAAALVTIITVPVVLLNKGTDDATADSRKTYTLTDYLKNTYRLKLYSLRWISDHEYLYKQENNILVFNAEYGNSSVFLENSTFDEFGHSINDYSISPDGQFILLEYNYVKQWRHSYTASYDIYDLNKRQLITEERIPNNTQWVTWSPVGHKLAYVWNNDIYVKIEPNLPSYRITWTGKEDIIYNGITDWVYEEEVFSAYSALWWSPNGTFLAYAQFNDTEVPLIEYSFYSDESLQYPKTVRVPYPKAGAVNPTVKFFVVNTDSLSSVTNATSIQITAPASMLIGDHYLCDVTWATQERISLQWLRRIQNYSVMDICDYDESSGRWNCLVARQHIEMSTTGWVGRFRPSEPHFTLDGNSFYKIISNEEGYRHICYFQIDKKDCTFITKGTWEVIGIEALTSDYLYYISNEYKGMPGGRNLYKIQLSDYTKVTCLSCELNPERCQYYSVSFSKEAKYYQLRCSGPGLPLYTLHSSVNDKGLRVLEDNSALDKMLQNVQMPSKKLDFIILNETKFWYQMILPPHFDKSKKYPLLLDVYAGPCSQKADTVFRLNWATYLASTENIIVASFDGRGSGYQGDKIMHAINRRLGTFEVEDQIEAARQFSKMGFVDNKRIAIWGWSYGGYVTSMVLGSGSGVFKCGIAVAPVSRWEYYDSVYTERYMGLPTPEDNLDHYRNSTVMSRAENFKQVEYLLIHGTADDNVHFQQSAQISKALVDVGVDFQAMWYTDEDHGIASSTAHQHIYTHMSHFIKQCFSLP
Method: (§3) In vitro binding studies were performed using the human tumor cell lines BxPC3, Capan-2, MCF-7 (purchased from Sigma Aldrich Chemie GmbH) and SK-LMS-1 (purchased from ATCC) as well as stably transfected FAP-cell lines HT-1080-FAP, HEK-muFAP and the CD26 expressing cell line HEK-CD26 (obtained from Stefan Bauer, NCT Heidelberg). All cells were cultivated in Dulbecco's modified Eagle's medium (DMEM) containing 10% fetal calf serum at 37° C./5% carbon dioxide. For fluorescence internalization experiments, cells were seeded on coverslips and stained with FAPI-02-Atto488 and DAPI for cell nucleus staining. Images were acquired on a laser scanning confocal microscope using a 63× oil immersion objective.
(§4) For radioligand binding studies, cells were seeded in 6-well plates and cultivated for 48 h to a final confluence of approx. 80-90% (1.2-2 mio cells/well). The medium was replaced by 1 mL fresh medium without fetal calf serum. The radiolabeled compound was added to the cell culture and incubated for different time intervals ranging from 10 min to 24 h. Competition experiments were performed by simultaneous exposure to unlabeled (10^−5 M to 10^−9 M) and radiolabeled compound for 60 min. […] Radioactivity was determined in a γ-counter (Cobra II, Packard), normalized to 1 mio cells and calculated as percentage of the applied dose (% ID). […]

HT-1080-FAP cells [3] = experiment: Efflux experiments in HT-1080-FAP cells; assay type: cell-based, human
Method: as §1, §2

[4] = test system: FAP-negative cancer cell lines; experiment: Radioligand binding to FAP-negative human cancer cell lines; assay type: cell-based; conditions: I-125 labeled, 60 min
Method: as §3, §4

[5] = test system: HT-1080-FAP and HEK-muFAP cells; experiment: Fluorescence laser scanning microscopy of internalization, FAP-α expressing cells; assay type: cell-based; conditions: fluorescently labeled, 1 to 2 hrs
Method: as §3
(§5) For internalization experiments HT-1080-FAP and HEK muFAP cells were seeded on uncoated coverslips in a 24-well plate and cultivated in culture medium containing 10% fetal calf serum to a final confluence of approx. 80-90%. The medium was removed and cells were washed with 0.5 mL PBS pH 7.4 for 2 times. FAPI-02-Atto488 (20 μM in DMEM) was added to the cells and incubated for 2 hrs at 37° C. Cells were washed with 0.5 mL PBS pH 7.4 for 3 times and fixed with paraformaldehyde (2% in PBS) for 15 min. The overgrown coverslips were placed on microscope slides using mounting medium containing DAPI for cell nucleus staining (Fluoroshield, Sigma-Aldrich). […]

HEK-CD26 cells = experiment: Fluorescence laser scanning microscopy of internalization, FAP-α negative cells; assay type: cell-based; conditions: fluorescently labeled, 1 to 2 hrs
Method: as §3, §5

[6] = Blood pool clearance from SUVmean of the heart; assay type: in vivo
Description: The calculated plateau values, which were higher for Ga-68 labeled FAPI-13, -21, -36 and AlF-18 labeled FAPI-74 theoretically correspond to a higher fraction of compound which is not cleared due to unspecific binding or by remaining in circulating (Table 12).

[7] = test system: HT-1080-FAP tumor xenografts; experiment: Organ distribution ex vivo in HT-1080-FAP tumor bearing nude mice; set-up: species or system mouse; conditions: AlF-18-labeled, i.v.
[8] = I-125 labeled, 10 min incubation
[9] = after 24 h in compound-free medium
[10] = F-18-FAPI derivatives, table title says EC50, head says IC50, read-out: IC50

human FAP-α, sequence (Q12884 whole entry): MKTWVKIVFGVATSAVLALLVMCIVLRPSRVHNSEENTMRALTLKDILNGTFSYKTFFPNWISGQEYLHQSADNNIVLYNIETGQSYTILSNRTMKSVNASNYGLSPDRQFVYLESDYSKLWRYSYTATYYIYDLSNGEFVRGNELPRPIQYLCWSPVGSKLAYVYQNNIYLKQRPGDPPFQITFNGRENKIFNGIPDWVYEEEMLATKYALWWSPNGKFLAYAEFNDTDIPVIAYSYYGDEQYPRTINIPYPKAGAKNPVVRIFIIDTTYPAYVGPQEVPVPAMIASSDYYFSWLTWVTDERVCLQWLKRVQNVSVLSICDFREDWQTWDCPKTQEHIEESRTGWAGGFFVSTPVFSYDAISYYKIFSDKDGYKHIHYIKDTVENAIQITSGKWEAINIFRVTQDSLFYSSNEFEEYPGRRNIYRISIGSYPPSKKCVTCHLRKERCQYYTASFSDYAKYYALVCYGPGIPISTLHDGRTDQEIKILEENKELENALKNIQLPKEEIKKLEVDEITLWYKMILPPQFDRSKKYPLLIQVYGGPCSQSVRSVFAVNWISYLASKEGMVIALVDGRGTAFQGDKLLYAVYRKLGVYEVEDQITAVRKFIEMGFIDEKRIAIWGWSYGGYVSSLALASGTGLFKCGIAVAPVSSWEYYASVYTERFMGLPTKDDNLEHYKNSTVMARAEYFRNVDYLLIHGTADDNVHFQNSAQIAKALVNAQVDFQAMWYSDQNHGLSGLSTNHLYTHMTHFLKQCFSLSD

In the case of `N#C[C@@H]1CC(F)(F)CN1C(=O)CNC(=O)c1ccnc2ccc(OCCCN3CCN(C(=O)CN(Cc4nccn4CC(=O)O)Cc4nccn4CC(=O)O)CC3)cc12` [FAPI-19], the pIC50 (human FAP-α; Tc-99m labeled, HT-1080-FAP cells, read-out: IC50) was 8.19 and the “tumor uptake in vivo” value [1] was “insufficient tumor uptake”.

In the case of `N#C[C@@H]1CCCN1C(=O)CNC(=O)c1ccnc2cccc(I)c12` [FAPI-01], the “activity remaining after 24 h of incubation relative to initial radioactivity” value (HT-1080-FAP cells [2]; 24 h incubation, FAPI-01 compared to binding after 10 min) was 5%, the “proportion of total bound fraction located intracellularly” value (HT-1080-FAP cells [2]; [8]) was 95% and the total bound fraction (HT-1080-FAP cells [2]; [8]) was 19.70±0.28%. The “internalized proportion of total” value (HT-1080-FAP cells [2]; I-125 labeled, 4 h incubation) was 94%, the total bound fraction (HT-1080-FAP cells [2]; I-125 labeled, 4 h incubation) was 17.00±0.40% and the radioactivity (HT-1080-FAP cells [2]; I-125 labeled, after 24 h, 4° C. (reduced deiodinase activity)) was 26.66±1.59%. The intracellular radioactivity (HT-1080-FAP cells [2]; I-125 labeled, after 24 h, 37° C.) was 3.25±0.29%, the pIC50 (human FAP-α; radiolabeled FAPI-01 (I-125) / FAPI-02 (Lu-177), HT-1080-FAP cells, 60 min, read-out: IC50 human FAP-α) was 7.40 and the “binding to CD26 expressing cells (% ID)” value (human CD26) was 0.05±0.01%. For the same compound, the “retained radioactivity (efflux)” value (HT-1080-FAP cells [3]; [9]) was 1.1 % ID, the “retention of the originally accumulated radioactivity (efflux)” value (HT-1080-FAP cells [3]; [9]) was 1.1% and the “binding to FAP-negative cancer cell lines” value [4] was “no significant binding”.

For `CN(CCCC(=O)N1CCN(CCCOc2ccc3nccc(C(=O)CCCN4CCC[C@H]4C#N)c3c2)CC1)Cc1ccccc1-c1c2ccc(=N)cc-2oc2c(S(=O)(=O)O)c(N)ccc12` [FAPI-02-Atto488], the “internalization into FAP-α expressing cells” value [5] was “completely internalized” and the “uptake in FAP-α negative HEK-CD26 cells” value (HEK-CD26 cells) was “no uptake is detectable”.

For `N#C[C@@H]1CC(F)(F)CN1C(=O)CNC(=O)c1ccnc2ccc(OCCCN3CCN(C(=O)CN4CCN(CC(=O)O)CCN(CC(=O)O)CC4)CC3)cc12` [FAPI-42], the IC50-values (human FAP-α; Cu-64 labeled, HT-1080-FAP cells) was “lower nanomolar range” and the “calculated in vitro-half-life (efflux)” value (HT-1080-FAP cells [3]; Cu-64 labeled) was 12 h.

In the case of `N#C[C@@H]1CC(F)(F)CN1C(=O)CNC(=O)c1ccnc2ccc(OCCCN3CCN(C(=O)CN(Cc4nccn4CC(=O)N[C@@H](CC(C(=O)O)C(=O)O)C(=O)O)Cc4nccn4CC(=O)N[C@@H](CC(C(=O)O)C(=O)O)C(=O)O)CC3)cc12` [FAPI-34], the “tumor uptake in vivo” value [1] was “continuously enriched within the tumor”.

For `N#C[C@@H]1CCCN1C(=O)CNC(=O)c1ccnc2ccc(OCCCN3CCN(C(=O)CN4CCN(CC(=O)O)CCN(CC(=O)O)CC4)CC3)cc12` [FAPI-74], the “Plateau value (SUVmean)” value ([6]; hypothetical plateau, two phase exponential decay of heart SUVmean) was 0.32, the “Blood pool-clearence (T1/2 [min])” value ([6]; rate determining half-life, two phase exponential decay of heart SUVmean 0.375-60 min) was 2.4 min and the pIC50 (human FAP-α; [10]) was 8.04. The PET imaging findings [1] was “high target specificity and fast clearance”.

In the case of `N#C[C@@H]1CC(F)(F)CN1C(=O)CNC(=O)c1ccnc2ccc(OCCCN3CCN(C(=O)[C@H](CC(C(=O)O)C(=O)O)NC(=O)CN4CCN(CC(=O)O)CCN(CC(=O)O)CC4)CC3)cc12` [FAPI-75], the “tumor uptake in organ distribution” value [7] was “high tumor uptake”, the pIC50 (human FAP-α; [10]) was 8.54 and the PET imaging findings [1] was “high target specificity and fast clearance”.
